Results on 11 compounds are retold here after PMC9585728, “Antiviral activity and mechanism of the antifungal drug, anidulafungin, suggesting its potential to promote treatment of viral diseases” (BMC Medicine, 2022).

Values joined by “and” are separate entries in the source; they are usually repeats but may differ in a detail not shown here. Equal entries are not always repeated. “Also recorded” adds a separate entry of the source. Starred links: 1 amine or outer side, 2 acyl side, 3 side chain; linkers in the order of their positions; H or OH if unused. Positions of bridges follow the written chain, without caps; N, C: chain ends. Non-standard residues stand in square brackets, D forms with d. Residues, ends and D or L forms follow the SMILES beside them. *: point of attachment. hTyr(3S-OH,4S-OH,3'-OSO3H) = N[C@H](C(=O)O)[C@H](O)[C@@H](O)c1ccc(O)c(OS(=O)(=O)O)c1; pTerphenylCO(4''-OnC5H11) = CCCCCOc1ccc(-c2ccc(-c3ccc(C(=O)*)cc3)cc2)cc1; Orn(4R-OH,5R-OH) = O=C([C@H](C[C@@H](O)[C@@H](O)N[*:3])N[*:1])[*:2]; hTyr(3S-OH,4S-OH) = N[C@H](C(=O)O)[C@H](O)[C@@H](O)c1ccc(O)cc1; Pro(3S-OH,4S-Me) = C[C@H]1CN[C@H](C(=O)O)[C@H]1O; X1 = CCCCCOc1ccc(-c2cc(-c3ccc(C(=O)*)cc3)no2)cc1; Gln(3R-OH) = NC(=O)C[C@@H](O)[C@H](N)C(=O)O; Hyp = O=C(O)[C@@H]1C[C@@H](O)CN1

For data set [1], the system named is HSV-1. In words: microbe, parasite or virus in culture. Type of data set: cell-based, herpes simplex virus 1.
The subject of data set [2] is GTV. In words: microbe, parasite or virus in culture. Type of data set: cell-based, Guertu virus.
Data set [3] concerns DENV. The following applies: inhibition of DENV infection; cited from earlier work.
Data set [4] can be described thus: in vitro. The settings on record: African green monkey.
For data set [5], the system named is SFTSV. Type of data set: cell-based, severe fever with thrombocytopenia syndrome virus.
Data set [6] relates to SFTSV. Format: cell-based, severe fever with thrombocytopenia syndrome virus. This is another data set of the same source.
For data set [7], the system named is SFTSV. In words: microbe, parasite or virus in culture. Format: cell-based, severe fever with thrombocytopenia syndrome virus. The following applies: for IC50 / IC90: Severe fever with thrombocytopenia syndrome virus, Vero, 24 h.
Data set [8] concerns SFTSV. Format: cell-based, severe fever with thrombocytopenia syndrome virus. The source holds these as a separate data set.
Data set [9] concerns SFTSV. Format: cell-based, severe fever with thrombocytopenia syndrome virus. This is another data set of the same source.
The subject of data set [10] is SFTSV. Type of data set: cell-based, severe fever with thrombocytopenia syndrome virus. The following applies: pH 5.
The test system of data set [11] is CCHFV. Put plainly: microbe, parasite or virus in culture. Format: cell-based, Crimean-Congo hemorrhagic fever virus.
For data set [12], the system named is HRTV. In words: microbe, parasite or virus in culture. Type of data set: cell-based, Heartland virus.
Data set [13] relates to ZIKV. In words: microbe, parasite or virus in culture. Type of data set: cell-based, Zika virus.
For data set [14], the system named is SARS-CoV-2. In words: microbe, parasite or virus in culture. Type of data set: cell-based, severe acute respiratory syndrome coronavirus 2.
For data set [15], the system named is SFTSV. The arrangement: species or system A129 mice. The settings on record: mouse, in vivo.
Data set [16] relates to SFTSV. In words: microbe, parasite or virus in culture. Type of data set: cell-based, severe fever with thrombocytopenia syndrome virus.
Where [17] appears, read: Orthonairovirus haemorrhagiae, Vero.
[18] abbreviates: Severe acute respiratory syndrome coronavirus 2, Vero.

In general, IC50 refers to the midpoint of a concentration-inhibition curve. By IC90 is commonly meant the point of the concentration-response curve where the effect stands at 90%. On to `CCCCCOc1ccc(-c2ccc(-c3ccc(C(=O)N[C@H]4C[C@@H](O)[C@@H](O)NC(=O)[C@@H]5[C@@H](O)[C@@H](C)CN5C(=O)[C@H]([C@@H](C)O)NC(=O)[C@H]([C@H](O)[C@@H](O)c5ccc(O)cc5)NC(=O)[C@@H]5C[C@@H](O)CN5C(=O)[C@H]([C@@H](C)O)NC4=O)cc3)cc2)cc1` [Anidulafungin, anidulafungin] ({pTerphenylCO(4''-OnC5H11)}-[Orn(4R-OH,5R-OH)]T[Hyp][hTyr(3S-OH,4S-OH)]T[Pro(3S-OH,4S-Me)]; lactam 1-C), for which the SI in data set [1] is 6.12; in [2], 7.53; in data set [7] it was 13.80; in [11] it was 3.86; in [12], 8.35; in [13], 9.54. Further, the SI in data set [14] is 7.59. Besides, the IC50 in [1] (Human alphaherpesvirus 1, Vero) is 6.81 µM; in data set [2] (Guertu virus, Vero), 5.54 µM; in data set [3] it was 3.24 µM; in data set [7], 3.02 µM; in data set [11] (setting [17]), 10.8 µM; in data set [12] (Heartland virus, Vero), 4.99 µM. Moreover, the IC50 in [13] (Zika virus, Vero) turned out to be 4.37 µM; in data set [14] (setting [18]), 5.49 µM. The IC90 was 9.12 µM in data set [1] (Human alphaherpesvirus 1, Vero); 9.62 µM in data set [2] (Guertu virus, Vero); 12.4 µM in data set [7]; 24.2 µM in data set [11] (setting [17]); 9.29 µM in data set [12] (Heartland virus, Vero); 6.44 µM in [13] (Zika virus, Vero). This compound also returned an IC90 in [14] (setting [18]) of 8.55 µM. This compound also yielded a CC50 in data set [4] of 41.7 µM. In addition, in data set [5], the “reduction of intracellular viral RNA copies relative to the control” value is on record as “over 10 times”. In addition, in data set [6], the “efficacy of virus binding to cells versus vehicle” value is listed as “did not have a significant difference”. For the same compound, in data set [8], the “number of intracellular viral RNA copies (virus internalization)” value was “significantly decreased”. Besides, the “suppression of the entry of SFTSV strain HBMC5” value in data set [9] was “as efficiently as the strain WCH”. Moreover, the “number and size of syncytia (fusion ability)” value in data set [10] is given as “decreased”. In data set [15], the “PLT (median, IQR)” value was 1054.5 (993.25, 1094) ×10^9/L and 950 (494.5, 1062.75) ×10^9/L and 1141 (1050, 1191) ×10^9/L. For the same compound, in [15], the “WBC (median, IQR)” value is 4.75 (4.35, 5.465) ×10^9/L and 4.72 (4.31, 6.195) ×10^9/L and 5.76 (5.28, 6.04) ×10^9/L. In data set [15], the body weight result was “maintained; also recorded: slight decrease”. For the same compound, the “clinical signs of illness onset” value in data set [15] is reported as “did not show typical clinical signs of illness onset”. The “histopathological damage in the lung, H&E” value in data set [15] is “significantly ameliorated”. Moreover, the “kidney lesions (renal tubulointerstitial hemorrhaging, edemas), H&E” value in [15] is reported as “slight”. In addition, the “liver lesion (ballooning degeneration of hepatocytes), H&E” value in [15] is “significantly attenuated”. In addition, in data set [15], the survival rate was 66.7% and 50.0%.

For the compound `O=C1C(O)=C([C@H]2CC[C@H](c3ccc(Cl)cc3)CC2)C(=O)c2ccccc21` [Atovaqone, Atovaquone], the CC50 in [4] was above 100 µM. Moreover, in [7], the SI is given as above 10, the IC50 was 5.06 µM and the IC90 was determined as 10.1 µM.

By inhibition is commonly meant how much of the control response was suppressed. Regarding `CN(C)CCCN1c2ccccc2Sc2ccc(Cl)cc21` [CPZ, chlorpromazine], the inhibition at 35 µM in data set [16] (Severe fever with thrombocytopenia syndrome virus, Vero, read-out: mean inhibition rate of SFTSV infection) amounted to 46.1%.

Regarding `Oc1ccc2ccccc2c1SSc1c(O)ccc2ccccc12` [IPA3, p21-activated kinase inhibitor III], the “mean inhibition rate of SFTSV infection” value in [16] is on record as 43.22%.

For the compound `CCCCCOc1ccc(-c2cc(-c3ccc(C(=O)N[C@H]4C[C@@H](O)[C@@H](O)NC(=O)[C@@H]5[C@@H](O)[C@@H](C)CN5C(=O)[C@H]([C@H](O)CC(N)=O)NC(=O)[C@H]([C@H](O)[C@@H](O)c5ccc(O)c(OS(=O)(=O)O)c5)NC(=O)[C@@H]5C[C@@H](O)CN5C(=O)[C@H]([C@@H](C)O)NC4=O)cc3)no2)cc1` [Micafungin, micafungin] (X1-[Orn(4R-OH,5R-OH)]T[Hyp][hTyr(3S-OH,4S-OH,3'-OSO3H)][Gln(3R-OH)][Pro(3S-OH,4S-Me)]; lactam 1-C), in [3], the IC50 is 10.2 µM. In addition, in data set [9], the “inhibitory effect on SFTSV infection during the entry process” value is “less effective than that exerted by anidulafungin”.

Compound `COc1c(C)c2c(c(O)c1C/C=C(\C)CCC(=O)OCCN1CCOCC1)C(=O)OC2` [Mycophenolate mofetil] registered a CC50 in data set [4] above 100 µM. In data set [7], this compound showed an SI above 10, an IC50 of 0.57 µM and an IC90 of 1.52 µM.

Take `COc1c(C)c2c(c(O)c1C/C=C(\C)CCC(=O)O)C(=O)OC2` [Mycophenolic acid]: the CC50 in [4] was above 100 µM. For the same compound, in data set [7], the SI was above 10, the IC50 was 0.47 µM and the IC90 stood at 4.75 µM.

For `CC(=O)Oc1ccccc1C(=O)Nc1ncc([N+](=O)[O-])s1` [Nitazoxanide], the CC50 in data set [4] is above 100 µM. In data set [7], this compound gave a half-inhibitory concentration (IC50) of 11.1 µM and an IC90 of 25.3 µM.

In turn, `COc1cccc(-c2ccc(NC(=O)C3=C(C(=O)O)CCC3)c(F)c2)c1` [Vidofludimus] gave a CC50 in data set [4] above 100 µM. In [7], this compound displayed an SI above 10, an IC50 of 6.07 µM and an IC90 of 14.6 µM.

In the case of `CC[C@H](C)C[C@H](C)CCCCCCCCC(=O)N[C@H]1C[C@@H](O)[C@@H](NCCN)NC(=O)[C@@H]2[C@@H](O)CCN2C(=O)[C@H]([C@H](O)CCN)NC(=O)[C@H]([C@H](O)[C@@H](O)c2ccc(O)cc2)NC(=O)[C@@H]2C[C@@H](O)CN2C(=O)[C@H]([C@@H](C)O)NC1=O` [caspofungin], the IC50 in data set [3] was 20.8 µM. Further, the “inhibitory effect on SFTSV infection during the entry process” value in data set [9] is on record as “limited effect”.

With `C[C@@H]1[C@H](O)[C@@H](C)/C=C/C=C/CC/C=C/C=C/C=C/C=C/C(O[C@H]2O[C@H](C)[C@@H](O)[C@H](N)[C@@H]2O)CC2O[C@](O)(CC(O)C(O)CCC(O)CC(O)CC(O)CC(=O)O[C@H]1C)CC(O)C2C(=O)O` (some centres unmarked) [nystatin], the “mean inhibition rate of SFTSV infection” value in [16] was determined as 8.67%.
